Source: patent US12497365B2, “4-pyridinyl formamide compound or derivative thereof, preparation method therefor, herbicidal composition and use thereof” (Qingdao Kingagroot Chemical Compound Co., Ltd., priority 2019, dated 2025)

How the values were obtained:
Experiment in all cases: Weeding effect in post-emergence stage
Type in all cases: in vivo
Conditions in all cases: active ingredient 2000 g/ha, 3 weeks after application, fresh weight control rate
Abutilon theophrasti = tested on: Abutilon theophrasti
Procedure, shortened: (§1)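 Greenhouse-grown weeds at the 2-3 leaf stage, about 2 weeks after sowing, were sprayed with compound at 2000-125 g/ha. The spray solution was made from acetone with Tween 80 and 1.5 L/ha methyl oleate concentrate as synergist. Fresh-weight growth control was scored 3 weeks after treatment.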

[1] = tested on: Amaranthus retroflexus L.
Procedure, shortened: as §1

Chenopodium album = tested on: Chenopodium album
Procedure, shortened: as §1

Descurainia sophia = tested on: Descurainia sophia
Procedure, shortened: as §1

Row | SMILES | Weeding effect, activity level (growth control rate), Abutilon theophrasti (Abutilon theophrasti) | Weeding effect, activity level (growth control rate), Amaranthus retroflexus L. [1] | Weeding effect, activity level (growth control rate), Chenopodium album (Chenopodium album) | Weeding effect, activity level (growth control rate), Descurainia sophia (Descurainia sophia)
1 | Cn1nnnc1NC(=O)c1ccnc(-c2ccc(C#N)nc2)c1Cl [Compound 1-134] | 5 (Level 5: growth control rate is above 85%) | 5 (Level 5: growth control rate is above 85%) | 5 (Level 5: growth control rate is above 85%) | 5 (Level 5: growth control rate is above 85%)
2 | Cn1nnnc1NC(=O)c1ccnc(-c2ccc(F)nc2F)c1Cl [Compound 1-135] | 5 (Level 5: growth control rate is above 85%) | 5 (Level 5: growth control rate is above 85%) | 5 (Level 5: growth control rate is above 85%) | 5 (Level 5: growth control rate is above 85%)
3 | Cc1cc(F)ncc1-c1nccc(C(=O)Nc2nnnn2C)c1Cl [Compound 1-136] | 5 (Level 5: growth control rate is above 85%) | 5 (Level 5: growth control rate is above 85%) | 5 (Level 5: growth control rate is above 85%) | 5 (Level 5: growth control rate is above 85%)
4 | Cc1nc(F)ccc1-c1nccc(C(=O)Nc2nnnn2C)c1Cl [Compound 1-137] | 5 (Level 5: growth control rate is above 85%) | 5 (Level 5: growth control rate is above 85%) | 5 (Level 5: growth control rate is above 85%) | 5 (Level 5: growth control rate is above 85%)
5 | Cc1cc(Cl)ncc1-c1nccc(C(=O)Nc2nnnn2C)c1Cl [Compound 1-138] | 5 (Level 5: growth control rate is above 85%) | 5 (Level 5: growth control rate is above 85%) | 5 (Level 5: growth control rate is above 85%) | 5 (Level 5: growth control rate is above 85%)
6 | Cn1nnnc1NC(=O)c1ccnc(-c2ccc(Cl)nc2Cl)c1Cl [Compound 1-139] | 5 (Level 5: growth control rate is above 85%) | 5 (Level 5: growth control rate is above 85%) | 5 (Level 5: growth control rate is above 85%) | 5 (Level 5: growth control rate is above 85%)
7 | Cn1nnnc1NC(=O)c1ccnc(-c2ccc(Br)nc2F)c1Cl [Compound 1-140] | 5 (Level 5: growth control rate is above 85%) | 5 (Level 5: growth control rate is above 85%) | 5 (Level 5: growth control rate is above 85%) | 5 (Level 5: growth control rate is above 85%)
8 | Cn1nnnc1NC(=O)c1ccnc(-c2cccnc2C(F)(F)F)c1Cl [Compound 1-141] | 5 (Level 5: growth control rate is above 85%) | 5 (Level 5: growth control rate is above 85%) | 5 (Level 5: growth control rate is above 85%) | 5 (Level 5: growth control rate is above 85%)
9 | Cn1nnnc1NC(=O)c1ccnc(-c2ccc(C(F)(F)F)nc2)c1Cl [Compound 1-142] | 5 (Level 5: growth control rate is above 85%) | 5 (Level 5: growth control rate is above 85%) | 5 (Level 5: growth control rate is above 85%) | 5 (Level 5: growth control rate is above 85%)
10 | COc1ccc(-c2nccc(C(=O)Nc3nnnn3C)c2Cl)cn1 [Compound 1-143] | 5 (Level 5: growth control rate is above 85%) | 5 (Level 5: growth control rate is above 85%) | 5 (Level 5: growth control rate is above 85%) | 5 (Level 5: growth control rate is above 85%)
11 | CCOc1ccc(-c2nccc(C(=O)Nc3nnnn3C)c2Cl)cn1 [Compound 1-144] | 5 (Level 5: growth control rate is above 85%) | 5 (Level 5: growth control rate is above 85%) | 5 (Level 5: growth control rate is above 85%) | 5 (Level 5: growth control rate is above 85%)
12 | Cn1nnnc1NC(=O)c1ccnc(-c2cncc(N)c2)c1Cl [Compound 1-145] | 5 (Level 5: growth control rate is above 85%) | 5 (Level 5: growth control rate is above 85%) | 5 (Level 5: growth control rate is above 85%) | 5 (Level 5: growth control rate is above 85%)
13 | Cn1nnnc1NC(=O)c1ccnc(-c2ccc(N3CCOCC3)nc2)c1Cl [Compound 1-146] | 5 (Level 5: growth control rate is above 85%) | 5 (Level 5: growth control rate is above 85%) | 5 (Level 5: growth control rate is above 85%) | 5 (Level 5: growth control rate is above 85%)
14 | Cn1nnnc1NC(=O)c1ccnc(-c2ccncc2)c1Cl [Compound 1-147] | 5 (Level 5: growth control rate is above 85%) | 5 (Level 5: growth control rate is above 85%) | 5 (Level 5: growth control rate is above 85%) | 5 (Level 5: growth control rate is above 85%)
15 | Cn1nnnc1NC(=O)c1ccnc(-c2ccnc(C#N)c2)c1Cl [Compound 1-148] | 5 (Level 5: growth control rate is above 85%) | 5 (Level 5: growth control rate is above 85%) | 5 (Level 5: growth control rate is above 85%) | 5 (Level 5: growth control rate is above 85%)
16 | Cn1nnnc1NC(=O)c1ccnc(-c2ccnc(F)c2)c1Cl [Compound 1-149] | 5 (Level 5: growth control rate is above 85%) | 5 (Level 5: growth control rate is above 85%) | 5 (Level 5: growth control rate is above 85%) | 5 (Level 5: growth control rate is above 85%)
17 | Cn1nnnc1NC(=O)c1ccnc(-c2ccncc2F)c1Cl [Compound 1-150] | 5 (Level 5: growth control rate is above 85%) | 5 (Level 5: growth control rate is above 85%) | 5 (Level 5: growth control rate is above 85%) | 5 (Level 5: growth control rate is above 85%)
18 | Cn1nnnc1NC(=O)c1ccnc(-c2ccnc(Cl)c2)c1Cl [Compound 1-151] | 5 (Level 5: growth control rate is above 85%) | 5 (Level 5: growth control rate is above 85%) | 5 (Level 5: growth control rate is above 85%) | 5 (Level 5: growth control rate is above 85%)
19 | Cn1nnnc1NC(=O)c1ccnc(-c2ccnc(Cl)c2Cl)c1Cl [Compound 1-152] | 5 (Level 5: growth control rate is above 85%) | 5 (Level 5: growth control rate is above 85%) | 5 (Level 5: growth control rate is above 85%) | 5 (Level 5: growth control rate is above 85%)
20 | Cn1nnnc1NC(=O)c1ccnc(-c2cc(Cl)nc(Cl)c2)c1Cl [Compound 1-153] | 5 (Level 5: growth control rate is above 85%) | 5 (Level 5: growth control rate is above 85%) | 5 (Level 5: growth control rate is above 85%) | 5 (Level 5: growth control rate is above 85%)
21 | Cn1nnnc1NC(=O)c1ccnc(-c2ccc(F)nn2)c1Cl [Compound 1-154] | 5 (Level 5: growth control rate is above 85%) | 5 (Level 5: growth control rate is above 85%) | 5 (Level 5: growth control rate is above 85%) | 5 (Level 5: growth control rate is above 85%)
22 | Cn1nnnc1NC(=O)c1ccnc(-c2ccc(C#N)nn2)c1Cl [Compound 1-155] | 5 (Level 5: growth control rate is above 85%) | 5 (Level 5: growth control rate is above 85%) | 5 (Level 5: growth control rate is above 85%) | 5 (Level 5: growth control rate is above 85%)
